Consider 2 compounds from patent US12384775B2, “Pyrimid-2-yl-pyrazole compounds as IRAK inhibitors” (Rigel Pharmaceuticals, Inc., priority 2022, dated 2025).

The target in one data set is T1, IRAK4 (Homo sapiens, UniProt Q9NWZ3).
T1 construct: purchased Signalchem I12-10G-20
T1 sequence (Q9NWZ3 1-460): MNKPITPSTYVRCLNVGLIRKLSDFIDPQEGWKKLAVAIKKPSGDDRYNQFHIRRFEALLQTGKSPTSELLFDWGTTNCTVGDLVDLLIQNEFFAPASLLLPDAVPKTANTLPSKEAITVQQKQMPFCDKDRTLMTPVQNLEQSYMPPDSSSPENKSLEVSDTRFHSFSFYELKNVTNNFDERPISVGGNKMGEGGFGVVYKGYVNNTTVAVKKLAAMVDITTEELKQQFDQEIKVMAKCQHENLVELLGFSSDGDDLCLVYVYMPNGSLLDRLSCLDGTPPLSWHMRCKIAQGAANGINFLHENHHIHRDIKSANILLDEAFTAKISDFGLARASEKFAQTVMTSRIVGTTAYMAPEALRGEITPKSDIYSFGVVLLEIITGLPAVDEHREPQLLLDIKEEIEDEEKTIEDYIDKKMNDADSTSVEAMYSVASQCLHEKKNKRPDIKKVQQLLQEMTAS
In words: IRAK4 ADP-Glo kinase assay. Particulars: for IC50: n >= 3. The data set is classed as biochemical. Here is the method: The ADP-Glo™ reagents were thawed at ambient temperature. The Kinase Detection Reagent was prepared by mixing kinase detection buffer with the lyophilized kinase detection substrate, and set aside.
A stock volume of 5× Reaction Kinase Buffer was made with a final concentration of 100 mM MgCl2, 200 mM Tris-HCl, and 0.5 mg/ml of BSA, in distilled H2O with a final pH7.4. A 2× working stock volume of Reaction Kinase Buffer was made containing a final concentration of 100 μM DTT.
The components of IRAK4 Enzyme were thawed on ice. Diluted IRAK4 in 1× Kinase Reaction Buffer (diluted from 2× buffer) was prepared at […]. A 250 μM working stock ATP Assay Solution was prepared in 1× Kinase Reaction Buffer (diluted from 2× buffer).
The compound was diluted in DMSO from 250 µM in 4-fold series dilutions for 8 points. Then diluted 1:5 in 2× Reaction Buffer in a 96 well plate. 1.0 μl was transferred to a 384 well plate in duplicate. […] 1 μl of 1 mg/ml stock solution of MBP substrate was added NOTE: MBP can be combined with ATP mix with equal volume and then added at 2 μl/well. Final reaction volume was 5 μl. The plate was centrifuged and the reaction mixture was incubated at room temperature for 60 minutes or at 30° C. for 30 minutes.
The reaction was terminated and the remaining ATP was depleted by adding 5 μl of ADP-Glo™ Reagent. The 384-well plate was centrifuged and then the reaction mixture was incubated for another 40 minutes at ambient temperature.
10 μl of the Kinase Detection Reagent was added. The plate was centrifuged and then the reaction mixture was incubated for another 30 minutes at ambient temperature.
The 384-well reaction plate was read using the WALLAC plate reader (Luminescence 0.1s).

A short description of data set [1]: Plasma protein binding, equilibrium dialysis (RED), dog. Conditions: drug 5 μM; for fraction unbound at 5 μM: read-out: % bound (converted). The data set is classed as in vitro ADME. Here is the method: (§1) Brain and plasma drug binding were performed by equilibrium dialysis using the Rapid Equilibrium Dialysis (RED) device. Briefly, 300 μL of plasma or brain homogenate (1 brain/3 buffer) containing drug (5 μM) was equilibrated (4-18 h) against 500 μL of buffered saline. After incubation, the concentration of drug in plasma/brain homogenate and buffer was determined by LC-MS/MS.
(§2) Recovery is calculated by determining the total amount of drug in 50 μL of plasma and 50 μL buffer after the incubation and comparing that value to the amount of drug in 50 μL of a plasma sample that was not incubated. For the protein binding assay, drug was added to the plasma and this plasma was added to one side of the dialysis device while buffer was added to the other. After filing the plasma chamber of the equilibrium device, a 50 μL aliquot of plasma was mixed with 50 μL of buffer and then quenched with stop reagent. Drug recovery=(Drug buffer+Drug plasma)/(drug in initial plasma)
(In equilibrium dialysis only unbound substance equilibrates across the membrane.)

The nature of data set [2]: Plasma protein binding, equilibrium dialysis (RED), rat. The format is in vitro ADME. Conditions: for recovery at 5 μM / fraction unbound at 5 μM: Rat plasma, drug 5 μM; for fraction unbound at 5 μM: read-out: % bound (converted); for Free Fraction in Whole Blood Assay, Rat: plasma free fraction. Here is the method:
as §1, §2

Data set [3] can be described thus: Plasma protein binding, equilibrium dialysis (RED), monkey. The data set is classed as in vitro ADME. Conditions: drug 5 μM; for fraction unbound at 5 μM: read-out: % bound (converted); for recovery at 5 μM: value above 100% due to experimental error (footnote). Here is the method: as §1, §2
A short description of data set [4]: Plasma protein binding, equilibrium dialysis (RED), mouse. The data set is classed as in vitro ADME. Particulars: drug 5 μM; for recovery at 5 μM: low due to hydrolysis; for fraction unbound at 5 μM: read-out: % bound (converted). Here is the method:
as §1, §2

For data set [5], the system named is TLR7-induced TNF-α production in human primary dendritic cells (DC). The data set is described as follows: Gardiquimod-induced TNF-α in human monocyte-derived dendritic cells (DC). The data set is classed as cell-based. Particulars: Dendritic cell, gardiquimod 4 μg/ml, read-out: Cell Assays IC50, TNFα (DC, Gard). Here is the method:
Human peripheral blood mononuclear cells (PBMC) (400 million) were allowed to adhere in a T-175 flask containing 15 ml RPMI media (10% FBS) for 2 hours at 37° C., 5% CO2 to capture the monocytes.
After 2 hours, the media including floating cells was carefully removed and 12 ml of fresh RPMI media (10% FBS) containing GM-CSF (100 ng/ml) and IL-4 (20 ng/ml) were added to the adherent monocytes. The monocytes were allowed to differentiate for 7 days at 37° C., 5% CO2 for 7 days, supplementing with fresh GM-CSF and IL-4 after 3 days.
The differentiated dendritic cells (DC) were harvested by centrifugation (1200 rpm/5 min). The DCs were primed at 37° C., 5% CO2 for 24 hours with 50 ng/ml IFN-7 (1000 U/ml) at 50K/well in 100 μL/well of fresh RPMI media (10% FBS) in a white clear bottom 96 well plate.
Compound was serially diluted in DMSO from 2.5 mM in 4-fold dilutions, and then diluted 1:125 in RPMI 1640 complete media with 10% FBS. The primed DCs were pre-incubated with test compound for 1 hour at 37° C., 5% CO2 by adding 100 μl of RPMI media containing 2× concentrated test compound per well (0.5% final DMSO concentration).
The DCs were stimulated with gardiquimod (10 μL per well of 20× concentrated gardiquimod solution in RPMI media to give a final concentration of 4 μg/ml) at 37° C., 5% CO2 for an additional 18 hours. […] TNF-α was quantitated by ELISA, following the kit protocol.

For orientation: IC50 means the point on the concentration scale where inhibition reaches its midpoint. With `CCO[C@H]1CC[C@H](n2cc(NC(=O)c3csc(-c4cn[nH]c4)n3)c(-c3nc(F)ccc3F)n2)CC1` [Comparison-1, reference compound], the results for the IC50 (at IRAK4; in data set [5]) were 6 ± 6 nM and 19 nM, respectively. Further, the recovery at 5 μM in data set [1] worked out at 77.2%; in data set [2], 68.3%; in data set [3] it was 71.6%; in data set [4], 10%. In addition, the fraction unbound at 5 μM is 0.01 in data set [1], 0.007 in data set [2], 0.003 in data set [3] and 0.022 in data set [4]. Besides, the “Free Fraction in Whole Blood Assay, Rat” value in data set [2] came to 0.7%.

A word on the EC50: it is the midpoint of the concentration-response curve. For `CCO[C@H]1CC[C@H](n2cc(NC(=O)c3csc(-c4cn[nH]c4)n3)c(-c3ncccn3)n2)CC1` [Compound I-1, N-(1-((1r,4r)-4-ethoxycyclohexyl)-3-(pyrimidin-2-yl)-1H-pyrazol-4-yl)-2-(1H-pyrazol-4-yl)thiazole-4-carboxamide], the IC50 at IRAK4 stood at 7 ± 4 nM; in data set [5], 5 nM. Moreover, the EC50 on IRAK4 (read-out: IRAK4 ADP-Glo Kinase, 8 pt EC50) was found to be 7 nM. Besides, the recovery at 5 μM is 70.7% in data set [1], 73.9% in data set [2], 104% in data set [3] and 23.6% in data set [4]. Further, the fraction unbound at 5 μM in data set [1] is 0.066; in data set [2] it was 0.037; in data set [3], 0.017; in data set [4], 0.085. For the same compound, the “Free Fraction in Whole Blood Assay, Rat” value in data set [2] is listed as 3.7%.
